Bridge positions count the residues as written; N and C are the ends. Ends that are not written are not given here. Peptide text beside a SMILES is read from it.
How the values were obtained:
[1] = tested on: autoimmune diabetes in NOD mice; assay: Autoimmune diabetes progression in cyclophosphamide-synchronized NOD mice (blood glucose); format: in vivo; conditions: general statement, experiments described herein
Text: NOD/LtJ, NOD-BDC2.5 and C57BL/6 mice were purchased from the Jackson Laboratories (Bar Harbor, Me.) at 6-8 weeks of age. All mice were housed and maintained according to the guidelines for use and care of laboratory animals as set forth by Vanderbilt University and regulated via the Vanderbilt IACUC. All NOD mice were monitored twice weekly for the development of diabetes by blood glucose measurement with FreeStyle® FastTake test strips (Abbott Laboratories, Abbott Park, Ill.). Two consecutive glucose measurements >220 mg/dl constituted a diagnosis of diabetes. A colony of NOD mice kept by a collaborating laboratory in the same animal suite has a spontaneous diabetes incidence of 80-90% in females by 30 weeks of age indicating an animal environment that is conducive for diabetes development.
At 10-11 weeks of age, female NOD mice received an intraperitoneal bolus injection of 200 mg/kg cyclophosphamide (Sigma). Cyclophosphamide was prepared by reconstitution of powder in sterile saline for injection.
45 h after diabetes synchronization with cyclophosphamide, treatment with cSN50 or control was initiated. Mice receiving cSN50 were given 35 μg/g of cSN50 i.p. every two hours for the next 48 h. Control mice received either saline or non-cell penetrating cN50 peptide at molar equivalent (20 μg/g). cN50 peptide, contains the cyclized NLS but lacks the membrane translocating motif. […]

[2] = Anti-cSN50 peptide antibody induction (ELISA); format: in vivo, NOD mice; conditions: limit of detection 10 ng/mL
[3] = Continued peptide delivery in other disease models, toxicity; format: in vivo; conditions: up to 8 weeks, health, survival, weight gain, liver enzymes, blood cell counts normal
Text: Reduction or complete elimination of islet-destructive autoreactive T and B cells may be useful in treating T1D and potentially other autoimmune diseases. Other autoimmune disorders include Systemic Lupus Erythematosus, Multiple Sclerosis, Rheumatoid Arthritis, Crohn Diseases, and Ulcerative Collitis. Under conditions of metabolic, inflammatory, and oxidant stress, beta cell mass may be further controlled by important interactions between bone marrow-derived cells and islet beta cells. Transcriptional modulation of these interactions via targeting of the nuclear import machinery represents an important new opportunity for therapeutic development. Even though cSN50 can modulate nuclear transport of several stress-responsive transcription factors that utilize importin alpha 1/karyopherin alpha 5 (as well as other importins/karyopherins, e.g., importin alpha 5/karyopherin) for nuclear trafficking, intracellular delivery of the Nuclear Transport Modifier is rapid and restricted to the relatively short intracellular persistence of the injected cargo (Hawiger J., (1999) Current Opinion in Chem. Biology 3:89-94). Despite high intensity dosing of cSN50 in the protocols disclosed herein, short-term or long-term adverse effects were not observed. […] In preliminary studies, spontaneous disease was reversed in 40% of the NOD mice during a continuing NTM treatment for 3 weeks.

NOD mice = assay: Toxicity observation and clinical chemistry in treated NOD mice
Experimental: ALT and BUN levels were determined on a VITROS 250 Chemistry analyzer using multi-layered vitros slides and colorimetric or enzyme rate tests as appropriate.
Ten week old female NOD mice received one dose of Cy (0.2 mg/g); after 45 h, intracellular peptide delivery was initiated with cSN50 (35 μg/g) or with control cN50 and continued every 2 h for 48 h. Serum was obtained daily from the saphenous vein and measurements of ALT (FIG. 8A) and BUN (FIG. 8B) were performed in 7 mice in each group.

[4] = In vivo intracellular peptide delivery to the pancreas (confocal microscopy); design: species or system NOD mice; conditions: single i.p. injection (0.7 mg FITC-labeled peptide/mouse or FITC of equivalent fluorescence); 2 h after injection
Text: Cell-penetrating peptide (cSN50, MW=3149; cSN50.1, MW=2986), and non-cell-penetrating peptide (cN50, MW=1651), were synthesized, purified, filter-sterilized, and analyzed as described elsewhere (Torgerson et al. (1998) J Immunol 161: 6084-6092; Liu et al. (2000) J Biol Chem 275: 16774-16778). To monitor the intracellular delivery of peptides to pancreas, cSN50 peptide was coupled with fluorescein isothiocyanate (FITC, Pierce) according to the manufacturer's protocol.
For in vivo detection of fluorescein-labeled peptides in the pancreas, NOD mice were sacrificed at 2 h after intraperitoneal (i.p.) injection of 0.7 mg of FITC-labeled cSN50 peptide/mouse. The pancreata were washed with saline and prepared for cryosections (10 μm thickness). Control solution of FITC alone with equivalent fluorescence units was injected separately to track distribution to the pancreas.
Intracellular delivery of a Nuclear Transport Modifier to the pancreas reduces islet inflammation (insulitis). […] It was first determined whether cSN50 would be delivered to the pancreas, the primary site of autoimmune attack against beta cells in pancreatic islets. […] Using confocal microscopy, the pancreatic delivery of FITC-labeled cSN50 peptide following a single intraperitoneal (i.p.) injection was assessed. […]

Molecule: AAVALLPAVLLALLAPCVQRKRQKLMPC (disulfide 17-28 (inferred)) [cSN50.1, cSN50 with the tyrosine at position 18 removed to increase solubility]
- islet protection from immune destruction [1]: effectively protected islets from immune destruction

Molecule: CSCC[C@@H]1NC(=O)[C@H](CC(C)C)NC(=O)[C@H](CCCCN)NC(=O)[C@H](CCC(N)=O)NC(=O)[C@H](CCCNC(=N)N)NC(=O)[C@H](CCCCN)NC(=O)[C@H](CCCNC(=N)N)NC(=O)[C@H](CCC(N)=O)NC(=O)[C@H](C(C)C)NC(=O)[C@H](Cc2ccc(O)cc2)NC(=O)[C@@H](NC(=O)[C@@H]2CCCN2C(=O)[C@H](C)NC(=O)[C@H](CC(C)C)NC(=O)[C@H](CC(C)C)NC(=O)[C@H](C)NC(=O)[C@H](CC(C)C)NC(=O)[C@H](CC(C)C)NC(=O)[C@@H](NC(=O)[C@H](C)NC(=O)[C@@H]2CCCN2C(=O)[C@H](CC(C)C)NC(=O)[C@H](CC(C)C)NC(=O)[C@H](C)NC(=O)[C@@H](NC(=O)[C@H](C)NC(=O)[C@H](C)N)C(C)C)C(C)C)CSSC[C@@H](C(=O)O)NC(=O)[C@@H]2CCCN2C1=O [cSN50] (H-AAVALLPAVLLALLAPCYVQRKRQKLMPC-OH; disulfide 17-29; N-terminus and C-terminus assumed)
- anti-cSN50 peptide antibody induction [2]: not detected
- toxicity on continued delivery [3]: without evidence of toxicity
- overt signs of toxicity (NOD mice; 365 days of observation after 48 h treatment): did not display overt signs of toxicity
- acquired infection (NOD mice; after intensive treatment): no signs of acquired infection
- weight gain (NOD mice; after intensive treatment): normal weight gain
- BUN level (NOD mice; serum daily, 7 mice per group, vs cN50 control): not significantly different from control
- ALT level (NOD mice; serum daily, 7 mice per group, vs control): not significantly different from control
- alkaline phosphatase, creatinine, creatine kinase, and total bilirubin (NOD mice; serum, 7 mice per group): below the limit of detection

Molecule: fluorescein isothiocyanate [FITC]
- delivery to / distribution in the pancreas [4]: did not penetrate the organ
